Patent US20250145628A1, “PYRAZOLOPYRIMIDINES, COMPOSITIONS COMPRISING THEM AND USES THEREOF” (Novo Nordisk A/S, priority 2022, published 2025)

What was measured:
human CB1 receptor [1] = biological target: T1, human CB1 receptor (Homo sapiens, UniProt P21554); experiment: bioSensAll GAPL-Gi2 BRET biosensor assay (antagonism of CP-55,940); type: cell-based; conditions: HEK293 cells transfected with hCB1 and GAPL-Gi2 biosensor, EC75 of CP-55,940 (0.1 nM), overnight incubation, read-out: CB1 wt Gi2 IC50
T1 construct: expressed in transfected cells; host or cells: HEK293
T1 sequence (P21554 whole entry): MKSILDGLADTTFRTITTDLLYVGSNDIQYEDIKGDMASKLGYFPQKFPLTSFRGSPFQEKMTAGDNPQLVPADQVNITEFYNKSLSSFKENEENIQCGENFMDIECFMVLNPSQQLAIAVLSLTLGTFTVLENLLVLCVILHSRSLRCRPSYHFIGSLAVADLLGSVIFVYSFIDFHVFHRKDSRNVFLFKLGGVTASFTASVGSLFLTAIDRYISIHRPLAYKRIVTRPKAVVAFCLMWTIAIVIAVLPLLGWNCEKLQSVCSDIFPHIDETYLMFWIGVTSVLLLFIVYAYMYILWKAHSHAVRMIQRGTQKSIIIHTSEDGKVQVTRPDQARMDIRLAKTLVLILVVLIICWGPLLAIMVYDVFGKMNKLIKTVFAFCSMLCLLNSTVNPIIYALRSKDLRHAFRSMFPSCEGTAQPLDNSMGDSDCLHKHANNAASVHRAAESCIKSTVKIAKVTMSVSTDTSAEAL
Method in brief: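 HEK293 cells transiently co-transfected with hCB1 and GAPL-Gi2 BRET biosensor; ~48 h later, in HBSS, 12 compound doses ([…]) added 3–5 min before CP-55,940 at EC75 (0.1 nM). BRET ratio 515/400 nm with coelenterazine, standardized to uBRET; four-parameter logistic fit.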

human CB1 receptor [2] = biological target: T1, human CB1 receptor; experiment: bioSensAll β-arrestin plasma membrane translocation BRET biosensor (+GRK2) assay (antagonism of CP-55,940); type: cell-based; conditions: HEK293 cells transfected with hCB1 and β-arrestin PM translocation biosensor (+GRK2), EC75 of CP-55,940 (100 nM), overnight incubation, read-out: CB1 wt βarr2 IC50
Method in brief: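 HEK293 cells co-transfected with hCB1 and β-arrestin plasma-membrane translocation BRET biosensor plus GRK2, tested ~48 h later in HBSS. Compounds (12 doses, 0–600 nM) added 3–5 min before CP-55,940 at EC75 of 100 nM. uBRET ratio (515/400 nm) fitted by four-parameter logistic regression.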

IC50 (human CB1 receptor [1]) [nM] | IC50 (human CB1 receptor [2]) [nM] | Structure (SMILES)
1.25 | 2.95 | CN(CC(C)(C)O)c1cc(-c2ccc(C(F)(F)F)nc2)n2nc(-c3ccc(C(N)=O)nc3)c(-c3ccc(Cl)cc3)c2n1 [Compound 64, 5-[3-(4-chlorophenyl)-5-[(2-hydroxy-2-methyl-propyl)-methyl-amino]-7-[6-(trifluoromethyl)-3-pyridyl]pyrazolo[1,5-a]pyrimidin-2-yl]pyridine-2-carboxamide]
34.4 | 107 | CNC(=O)CCN(C)c1cc(N2CC(CC(N)=O)C2)n2nc(-c3ccccc3Cl)c(-c3ccc(Cl)cc3)c2n1 [Compound 39, 3-[[7-[3-(2-amino-2-oxo-ethyl)azetidin-1-yl]-2-(2-chlorophenyl)-3-(4-chlorophenyl)pyrazolo[1,5-a]pyrimidin-5-yl]-methyl-amino]-N-methyl-propanamide]
25.5 | 101 | CN(CCC(N)=O)c1cc(N2CCC[C@@H](C(N)=O)C2)n2nc(-c3ccccc3Cl)c(-c3ccc(Cl)cc3)c2n1 [Compound 23, (3R)-1-[5-[(3-amino-3-oxo-propyl)-methyl-amino]-2-(2-chlorophenyl)-3-(4-chlorophenyl)pyrazolo[1,5-a]pyrimidin-7-yl]piperidine-3-carboxamide]
1.39 | 3.65 | N#Cc1ccc(-c2nn3c(N4CC(C(N)=O)C4)cc(N4CCC[C@H]4CO)nc3c2-c2ccc(Cl)cc2)cn1 [Compound 61, 1-[3-(4-chlorophenyl)-2-(6-cyano-3-pyridyl)-5-[(2S)-2-(hydroxymethyl)pyrrolidin-1-yl]pyrazolo[1,5-a]pyrimidin-7-yl]azetidine-3-carboxamide]
